The record followed here is PubChem BioAssay (NCI).

What all share (test): NCI anticancer screen, dose series, 48 h
Test [1] deals with ACHN renal.
Test [2] concerns HT29 colon.
Test [3] relates to COLO 205 colon.
For test [4], the system named is SR leukemia.
The test system of test [5] is EKVX NSCLC.
For test [6], the system named is LOX IMVI melanoma.
The subject of test [7] is A549 NSCLC.
For test [8], the system named is SNB-75 CNS.
In test [9] the test system is MALME-3M melanoma.
The subject of test [10] is HOP-92 NSCLC.

Structures are written as SMILES.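 Protocol summary: plate cells (96-well), add compound at 5 concentrations, incubate 48 h, interpolate endpoints linearly. GI50 is the concentration that inhibits growth by half. TGI: concentration producing complete growth inhibition.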 Some results are limits rather than exact numbers.

For `Cc1nn2c(/C=C3/C(=O)Nc4ccccc43)c(-c3ccc(Cl)cc3)nc2s1`, the GI50 was 9.86 µM in test [1]; 11.9 µM in test [2]; 14.9 µM in test [3]; 13.8 µM in test [4]; 20.3 µM in test [5]; 10.6 µM in [6]. Besides, in test [7], the GI50 is 16.2 µM. Also, the TGI in [1] is 20 µM; in [2], 27 µM; in [3], above 50 µM; in [4], above 50 µM; in [5], above 50 µM; in [6], 21.4 µM. The compound also showed a TGI in test [7] above 50 µM.

Take `O=C(O)c1ccc(NS(=O)(=O)c2cccc3cccnc23)cc1`: the GI50 in test [1], in test [2], in [8], in [3], in [4] and in test [9] was above 100 µM each time. Also, the GI50 in test [6] and in test [7] was above 100 µM in each case. Besides, the TGI in [1], in [2], in [8], in test [3], in [4] and in test [9] was above 100 µM throughout. In addition, the TGI in test [6] and in [7] was above 100 µM throughout.

In the case of `O=C(Nc1ccc(Nc2ccncc2)cc1)c1ccc(Nc2ccnc3ccc([N+](=O)[O-])cc23)cc1`, the GI50 in test [1] is above 100 µM; in test [10], above 100 µM; in test [2] it was above 100 µM; in test [8], above 100 µM; in [3], above 100 µM; in test [4] it was 7.53 µM. Also, the GI50 in test [5], in test [6] and in test [7] was above 100 µM throughout. The TGI in test [1], in [10], in test [2], in [8], in test [3] and in [4] was above 100 µM each time. Further, the TGI in [5], in [6] and in [7] was above 100 µM in each case.

Turning to `COC[C@H]1OC(=O)c2coc3c2[C@@]1(C)C1=C(C3=O)[C@@H]2CCC(=O)[C@@]2(C)C[C@H]1OC(C)=O`, the TGI in [1] is above 100 µM; in test [2] it was 97.8 µM; in test [3] it was above 31.6 µM; in test [4] it was 31.3 µM; in test [5], above 100 µM; in test [9], 39.3 µM. Moreover, the TGI in test [6] was 53.8 µM; in test [7] it was above 100 µM. The GI50 in test [9] is 1.44 µM.

For `COc1ccc(/C=C(\C#N)c2cc(OC)c3c(c2)OCO3)cc1`, the GI50 in [1] was 0.0449 µM; in test [10] it was 8.09 µM; in test [2], below 0.01 µM; in test [8], 0.0102 µM; in test [3] it was below 0.0124 µM; in test [4] it was below 0.01 µM. Moreover, the results for the GI50 in test [5], in test [6] and in test [7] were 1.98 µM, 0.0271 µM and below 0.0148 µM, respectively. Further, the TGI was 67.7 µM in test [1]; 52.2 µM in [10]; 0.694 µM in [2]; 0.0521 µM in test [3]; above 100 µM in [4]; above 100 µM in test [5]. For the same compound, the values for the TGI in test [6] and in [7] were above 100 µM and 44.1 µM, respectively.

For the compound `Cc1ccc2c(=O)[nH]sc2c1`, the TGI in [1] is 21.6 µM; in [2], 32.3 µM; in test [8], above 100 µM; in test [3] it was 16.7 µM; in test [4], 18.7 µM; in test [5], 30.6 µM. Besides, the TGI in test [9] worked out at 45.6 µM; in test [6], 32.9 µM; in [7] it was 43.1 µM.

In the case of `COc1ccc(C=NC23CC4CC(CC(C4)C2)C3)cc1`, the TGI in test [1] is above 100 µM; in test [2], above 100 µM; in [8], above 100 µM; in test [3] it was above 10 µM; in test [4] it was above 100 µM; in [5] it was above 100 µM. For the same compound, the TGI in test [9], in test [6] and in test [7] was above 100 µM throughout.

`NC1CCC[C@@H](O)[C@H]1O` (stereo not given in full): the TGI in [1], in test [2], in test [8], in test [3], in test [4] and in test [5] was above 100 µM in each case. Moreover, the TGI in test [9], in test [6] and in test [7] was above 100 µM throughout.

On to `COc1cc(-c2cc(-c3nc4ccccc4[nH]3)[nH]n2)cc(OC)c1OC`, for which the GI50 in test [1] is 2.77 µM; in test [2], 7.16 µM; in test [8], 2.83 µM; in [3], 3.98 µM; in [4], 3.32 µM; in test [9], 1.95 µM. In addition, the GI50 in [7] was 2.43 µM. The TGI in [1] was 14.2 µM; in test [2] it was 51.2 µM; in [8] it was 12.8 µM; in [3], 15.6 µM; in test [4], above 100 µM; in test [9] it was 8.49 µM. This compound also had a TGI in test [7] of 15.1 µM.

With `NC(=NC1CCCCCC1)c1ccc(N2CCN(c3ccc(C(N)=NC4CCCCCC4)cc3)CC2)cc1`, the GI50 is 46.4 µM in test [1]; 8.29 µM in test [10]; 9.3 µM in test [2]; 14.7 µM in test [3]; 6.64 µM in test [4]; 1.44 µM in test [5]. Moreover, the GI50 in test [6] is 3.05 µM; in test [7] it was 9.29 µM. Further, the TGI in [1] is above 50 µM; in test [10], 28.7 µM; in test [2], above 50 µM; in test [3] it was above 50 µM; in test [4], 19.8 µM; in test [5], 23 µM. Also, the TGI is 20.3 µM in test [6] and above 50 µM in [7].

As for `NC(=O)C1=C(c2ccccc2)c2ccccc2C1=O`, the TGI stood at 23.5 µM in test [1]; 35.3 µM in test [10]; 34.2 µM in test [2]; 36.2 µM in test [8]; 38.5 µM in test [3]; 26.3 µM in test [4]. The figures for the TGI in test [5], in test [6] and in test [7] were 33.3 µM, 21.4 µM and 37.6 µM, respectively.
